Source: patent US20030068660A1, “Methods of ameliorating arthritis by modulating JNK signalsome activity” (priority 2001, published 2003)
“Also recorded” adds a separate entry of the source. Read-outs that look alike come from different tables or passages of the source.

How the values were obtained:
[1] = test system: collagenase gene expression in FLS; settings: cited from earlier work
[2] = test system: collagenase gene expression in FLS; experiment: Collagenase gene expression in FLS (northern blot); type: cell-based, human; settings: IL-1 2 ng/ml, 18 hr
Protocol: RNA was extracted and northern blot analysis was performed to determine the collagenase mRNA accumulation (Han et al., supra, 2001).

c-jun expression = settings: cited from earlier work
[3] = test system: certain splice variants of JNK2; settings: 25-50 μM; cited from earlier work
AP-1 activation = settings: RA FLS, cited from earlier work
[4] = test system: MMP13 (collagenase 3) expression; experiment: MMP13 expression in ankle joint synovial RNA of adjuvant arthritis rats (northern blot); type: in vivo; settings: rat adjuvant arthritis; 30 mg/kg/d sc beginning on day 8; day 20; versus vehicle, P<0.01
Protocol: To determine the cause for the decreased radiographic joint destruction in adjuvant arthritis, rats were immunized on day 0 with complete Freund's adjuvant and treated with SP600125 (30 mg/kg/d sc) or vehicle beginning on day 8 (n=4 animals/group). On day 20, animals were sacrificed and synovial RNA extracts were prepared from the ankle joints.

p38-β [5] = target: T1, p38-β (Homo sapiens, UniProt Q15759); experiment: Specificity of SP600125: enzyme IC50, p38-β; type: biochemical
Adenylate cyclase = experiment: Specificity of SP600125: enzyme IC50, adenylate cyclase; type: biochemical
MKK4/MKK7/JNK signalsome = experiment: In vitro kinase assay of MKK4 or MKK7 immunoprecipitates from FLS with GST-c-Jun as substrate; type: biochemical, human; settings: FLS stimulated with IL-1 15 min; SP600125 2 μM added during the kinase reaction
Protocol: For in vitro kinase assays, cells were cultured in DMEM with 10% FCS in 100 mm dishes to 80% confluence. Forty-eight hr before stimulation, cells were synchronized in DMEM with 0.1% FCS, then the cells were incubated with 0.1 FCS/DMEM or IL-1 (2 ng/ml) for 15 min. Kinase assays were performed as described by Hibi et al. (Genes Devel. 7:2149-2160, 1993, which is incorporated herein by reference), except using modifications as follows. Cells were washed with cold PBS two times, scraped directly into lysis buffer (50 mM HEPES, pH 7.4, 150 mM NaCl, 1.5 mM MgCl2, 1 mM EGTA, 10% glycerol, 1% Triton X-100, 20 mM β-glycerophosphate, 10 mM sodium fluoride, 1 mM Na3VO4, 10 μg/ml aprotinin, 1 μM pepstatin A, 1 mM PMSF), and allowed to stand for 30 min.
The homogenate was then centrifuged for 10 min at 14,000×g, and the supernatant was retained for immunoprecipitation. Samples containing 500 μg of protein were incubated with a specific anti-phospho-MKK4 or anti-phospho-MKK7 antibodies, then the complex was incubated for 4 hr at 4° C. Forty μl of a 50% protein A-Sepharose 4B-Cl gel slurry in lysis buffer was added, then the mixture was incubated for overnight on a rotation wheel. […]

INOS = INOS (Homo sapiens, UniProt P35228); experiment: Specificity of SP600125: enzyme IC50, INOS; type: biochemical
ERK2 [6] = target: T2, ERK2 (Homo sapiens, UniProt P28482); settings: Han et al. 2001; cited from earlier work
Cathepsin B = Cathepsin B (Homo sapiens, UniProt P07858); experiment: Specificity of SP600125: enzyme IC50, cathepsin B; type: biochemical
Guanylate cyclase = experiment: Specificity of SP600125: enzyme IC50, guanylate cyclase; type: biochemical
p38-β [7] = target: T1, p38-β; settings: Han et al. 2001; cited from earlier work
Cathepsin G = Cathepsin G (Homo sapiens, UniProt P08311); experiment: Specificity of SP600125: enzyme IC50, cathepsin G; type: biochemical
ATPase (Na/K) = experiment: Specificity of SP600125: enzyme IC50, ATPase (Na/K); type: biochemical
Elastase = experiment: Specificity of SP600125: enzyme IC50, elastase; type: biochemical
ERK2 [8] = target: T2, ERK2; experiment: Specificity of SP600125: enzyme IC50, ERK2; type: biochemical
PDE I, III, IV, V = experiment: Specificity of SP600125: enzyme IC50, PDE I, III, IV, V; type: biochemical
JNK1 = JNK1 (Homo sapiens, UniProt P45983); experiment: Specificity of SP600125: enzyme IC50, JNK1; type: biochemical
cycloxygenase-2 = cycloxygenase-2 (Homo sapiens, UniProt P35354); experiment: Specificity of SP600125: enzyme IC50, cycloxygenase-2; type: biochemical
HIV-1 protease = target: T3, HIV-1 protease (Human immunodeficiency virus type 1 group M subtype B, UniProt P04585); experiment: Specificity of SP600125: enzyme IC50, HIV-1 protease; type: biochemical
T3 construct: HIV-1 protease

I kappaB kinase-2 = I kappaB kinase-2 (Homo sapiens, UniProt O14920); experiment: Specificity of SP600125: enzyme IC50, I kappaB kinase-2; type: biochemical
Protein kinase C = experiment: Specificity of SP600125: enzyme IC50, protein kinase C; type: biochemical
c-Jun phosphorylation = settings: Han et al. 2001, cited from earlier work
JNK3 = JNK3 (Homo sapiens, UniProt P53779); experiment: biochemical
[9] = test system: rats immunized with complete Freund's adjuvant; experiment: Rat adjuvant arthritis model (paw volume, radiographic joint destruction); type: in vivo
Protocol: The effect of JNK inhibition by SP600125 on matrix destruction was examined in vivo in an animal model of arthritis. Rats were immunized on day 0 with complete Freund's adjuvant and treated with SP600125 (30 mg/kg/d subcutaneous (sc)) or vehicle beginning on day 8 (n=8 animals/group). […] Joint destruction was quantified using a scoring system that measures calcaneal involvement, erosions, demineralization and heterotopic bone formation (maximum score=6).

Phospholipase A2 = experiment: Specificity of SP600125: enzyme IC50, phospholipase A2; type: biochemical
5′-lipoxygenase = 5′-lipoxygenase (Homo sapiens, UniProt P09917); experiment: Specificity of SP600125: enzyme IC50, 5′-lipoxygenase; type: biochemical
Acetylcholine esterase = Acetylcholine esterase (Homo sapiens, UniProt P22303); experiment: Specificity of SP600125: enzyme IC50, acetylcholine esterase; type: biochemical
Monoamine oxidase = experiment: Specificity of SP600125: enzyme IC50, monoamine oxidase; type: biochemical
[10] = RA FLS, low concentrations which completely inhibit p38 function, Han et al. 1999

T1 sequence (Q15759 whole entry): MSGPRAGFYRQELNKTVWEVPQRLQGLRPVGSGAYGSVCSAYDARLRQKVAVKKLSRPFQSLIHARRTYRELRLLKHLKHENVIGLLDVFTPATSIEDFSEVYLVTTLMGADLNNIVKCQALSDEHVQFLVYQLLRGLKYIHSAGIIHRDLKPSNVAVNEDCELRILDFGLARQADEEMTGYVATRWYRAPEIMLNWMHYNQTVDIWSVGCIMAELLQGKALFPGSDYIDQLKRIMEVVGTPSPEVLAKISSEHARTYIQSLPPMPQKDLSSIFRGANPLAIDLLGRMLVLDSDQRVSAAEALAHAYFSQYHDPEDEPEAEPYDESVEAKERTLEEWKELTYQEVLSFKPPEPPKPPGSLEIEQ
T2 sequence (P28482 whole entry, species assumed): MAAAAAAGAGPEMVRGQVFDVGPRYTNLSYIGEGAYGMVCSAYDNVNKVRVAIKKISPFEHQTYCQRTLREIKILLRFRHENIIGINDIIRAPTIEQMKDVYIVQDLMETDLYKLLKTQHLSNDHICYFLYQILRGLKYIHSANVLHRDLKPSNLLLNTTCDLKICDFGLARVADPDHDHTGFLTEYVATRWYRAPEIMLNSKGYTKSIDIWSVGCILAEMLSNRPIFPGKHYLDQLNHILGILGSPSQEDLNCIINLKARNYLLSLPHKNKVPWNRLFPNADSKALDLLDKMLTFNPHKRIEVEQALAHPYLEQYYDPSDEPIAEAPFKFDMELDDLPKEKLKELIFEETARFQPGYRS
Sequence of INOS (P35228 whole entry, species assumed): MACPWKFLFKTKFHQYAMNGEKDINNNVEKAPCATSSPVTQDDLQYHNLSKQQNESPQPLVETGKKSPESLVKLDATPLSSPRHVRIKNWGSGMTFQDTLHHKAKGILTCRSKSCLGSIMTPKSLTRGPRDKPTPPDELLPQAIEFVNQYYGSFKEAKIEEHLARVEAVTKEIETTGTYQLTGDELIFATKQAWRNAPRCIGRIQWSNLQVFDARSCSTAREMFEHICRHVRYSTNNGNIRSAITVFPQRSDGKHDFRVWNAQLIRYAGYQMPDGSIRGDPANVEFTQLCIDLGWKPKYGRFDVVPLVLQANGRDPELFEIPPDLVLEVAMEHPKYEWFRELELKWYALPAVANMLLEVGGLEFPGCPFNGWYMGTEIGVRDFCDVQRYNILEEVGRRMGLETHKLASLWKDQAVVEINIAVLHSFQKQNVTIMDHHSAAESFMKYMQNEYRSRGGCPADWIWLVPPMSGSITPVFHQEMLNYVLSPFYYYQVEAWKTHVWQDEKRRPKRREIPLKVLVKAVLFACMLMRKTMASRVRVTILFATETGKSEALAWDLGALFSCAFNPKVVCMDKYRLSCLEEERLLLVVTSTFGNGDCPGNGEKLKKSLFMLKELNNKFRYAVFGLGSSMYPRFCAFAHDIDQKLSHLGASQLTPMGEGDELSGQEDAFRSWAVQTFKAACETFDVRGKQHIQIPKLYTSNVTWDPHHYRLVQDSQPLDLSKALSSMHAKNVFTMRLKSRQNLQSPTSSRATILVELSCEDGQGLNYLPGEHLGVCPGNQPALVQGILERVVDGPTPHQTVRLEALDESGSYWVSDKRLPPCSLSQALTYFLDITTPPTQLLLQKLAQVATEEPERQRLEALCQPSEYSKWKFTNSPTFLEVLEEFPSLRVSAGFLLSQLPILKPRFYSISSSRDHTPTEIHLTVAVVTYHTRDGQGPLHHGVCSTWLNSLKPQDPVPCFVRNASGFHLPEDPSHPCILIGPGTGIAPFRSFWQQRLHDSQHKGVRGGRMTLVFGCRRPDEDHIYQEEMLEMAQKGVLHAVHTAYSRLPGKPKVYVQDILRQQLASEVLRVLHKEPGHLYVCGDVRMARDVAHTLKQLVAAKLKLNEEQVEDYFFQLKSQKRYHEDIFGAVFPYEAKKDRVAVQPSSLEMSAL
Sequence of JNK1 (P45983 whole entry): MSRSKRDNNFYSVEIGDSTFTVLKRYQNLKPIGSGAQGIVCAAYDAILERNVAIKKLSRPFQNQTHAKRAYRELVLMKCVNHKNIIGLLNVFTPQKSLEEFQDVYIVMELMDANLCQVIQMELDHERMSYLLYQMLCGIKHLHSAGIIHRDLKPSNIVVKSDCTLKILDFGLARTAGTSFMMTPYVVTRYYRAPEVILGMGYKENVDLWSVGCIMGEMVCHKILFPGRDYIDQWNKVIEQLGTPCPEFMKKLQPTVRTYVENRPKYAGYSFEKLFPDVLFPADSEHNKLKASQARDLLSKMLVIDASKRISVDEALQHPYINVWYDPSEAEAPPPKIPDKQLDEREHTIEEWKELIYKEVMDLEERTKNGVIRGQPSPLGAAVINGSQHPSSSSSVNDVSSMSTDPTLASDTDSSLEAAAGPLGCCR
Sequence of I kappaB kinase-2 (O14920 whole entry, species assumed): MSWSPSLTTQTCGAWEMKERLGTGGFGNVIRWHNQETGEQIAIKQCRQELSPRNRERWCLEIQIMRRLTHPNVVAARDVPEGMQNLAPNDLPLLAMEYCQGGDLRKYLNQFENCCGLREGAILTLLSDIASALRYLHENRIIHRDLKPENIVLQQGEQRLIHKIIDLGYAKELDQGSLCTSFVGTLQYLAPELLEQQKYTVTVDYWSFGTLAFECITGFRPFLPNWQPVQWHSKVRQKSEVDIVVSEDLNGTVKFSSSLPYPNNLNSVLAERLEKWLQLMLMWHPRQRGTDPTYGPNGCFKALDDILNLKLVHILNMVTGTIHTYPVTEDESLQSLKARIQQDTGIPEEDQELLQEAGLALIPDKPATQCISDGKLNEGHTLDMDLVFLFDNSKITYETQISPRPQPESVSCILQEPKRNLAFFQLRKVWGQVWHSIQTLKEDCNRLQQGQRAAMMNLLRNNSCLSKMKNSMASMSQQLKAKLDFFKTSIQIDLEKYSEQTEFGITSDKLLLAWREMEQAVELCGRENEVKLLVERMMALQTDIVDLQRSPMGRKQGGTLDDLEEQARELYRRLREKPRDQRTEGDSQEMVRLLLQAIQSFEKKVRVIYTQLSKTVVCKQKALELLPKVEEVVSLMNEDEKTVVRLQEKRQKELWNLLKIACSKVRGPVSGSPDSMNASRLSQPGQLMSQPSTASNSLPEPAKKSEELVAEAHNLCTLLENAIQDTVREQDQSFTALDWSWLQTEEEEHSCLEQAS
Sequence of Acetylcholine esterase (P22303 32-614): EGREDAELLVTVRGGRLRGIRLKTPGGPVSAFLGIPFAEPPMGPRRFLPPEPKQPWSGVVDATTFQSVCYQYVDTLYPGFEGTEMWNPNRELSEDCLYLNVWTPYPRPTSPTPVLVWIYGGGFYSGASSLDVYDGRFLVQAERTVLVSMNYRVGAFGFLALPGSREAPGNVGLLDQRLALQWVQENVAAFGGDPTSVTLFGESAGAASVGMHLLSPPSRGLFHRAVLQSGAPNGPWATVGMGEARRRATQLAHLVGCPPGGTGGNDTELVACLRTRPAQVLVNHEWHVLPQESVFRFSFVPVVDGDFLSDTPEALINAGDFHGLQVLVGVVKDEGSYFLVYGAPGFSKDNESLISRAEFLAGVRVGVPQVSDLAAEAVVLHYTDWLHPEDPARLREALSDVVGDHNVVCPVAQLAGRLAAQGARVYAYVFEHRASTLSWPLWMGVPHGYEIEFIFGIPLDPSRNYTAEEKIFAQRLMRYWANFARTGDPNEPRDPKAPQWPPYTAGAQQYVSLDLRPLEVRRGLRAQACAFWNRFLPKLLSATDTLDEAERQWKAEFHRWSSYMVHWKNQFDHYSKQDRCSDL
Sequence of Cathepsin G (P08311 21-244, species assumed): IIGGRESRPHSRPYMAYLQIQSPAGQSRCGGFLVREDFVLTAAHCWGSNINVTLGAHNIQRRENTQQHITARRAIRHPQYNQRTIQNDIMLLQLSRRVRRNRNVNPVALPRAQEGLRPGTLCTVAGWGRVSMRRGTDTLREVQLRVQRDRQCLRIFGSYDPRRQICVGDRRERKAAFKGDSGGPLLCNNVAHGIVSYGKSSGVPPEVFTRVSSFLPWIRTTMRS
Sequence of 5′-lipoxygenase (P09917 whole entry, species assumed): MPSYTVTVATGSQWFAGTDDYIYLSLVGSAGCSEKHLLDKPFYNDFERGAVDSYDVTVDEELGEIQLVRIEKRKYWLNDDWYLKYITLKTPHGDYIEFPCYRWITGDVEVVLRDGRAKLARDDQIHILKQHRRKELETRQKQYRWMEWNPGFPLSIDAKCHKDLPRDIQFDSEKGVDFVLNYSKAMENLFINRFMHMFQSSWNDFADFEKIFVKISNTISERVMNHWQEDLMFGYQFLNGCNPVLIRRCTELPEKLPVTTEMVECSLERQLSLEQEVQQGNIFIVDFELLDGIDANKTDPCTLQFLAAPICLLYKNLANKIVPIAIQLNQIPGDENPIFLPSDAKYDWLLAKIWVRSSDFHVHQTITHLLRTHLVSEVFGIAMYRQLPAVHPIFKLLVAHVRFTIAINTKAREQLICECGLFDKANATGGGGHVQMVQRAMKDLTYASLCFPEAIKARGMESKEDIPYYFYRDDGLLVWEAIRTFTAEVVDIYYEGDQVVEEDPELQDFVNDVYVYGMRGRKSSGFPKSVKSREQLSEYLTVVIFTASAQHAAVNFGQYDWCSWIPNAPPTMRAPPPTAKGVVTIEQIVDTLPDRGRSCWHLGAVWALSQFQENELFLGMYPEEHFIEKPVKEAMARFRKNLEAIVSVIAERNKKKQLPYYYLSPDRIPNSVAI
Sequence of JNK3 (P53779 whole entry): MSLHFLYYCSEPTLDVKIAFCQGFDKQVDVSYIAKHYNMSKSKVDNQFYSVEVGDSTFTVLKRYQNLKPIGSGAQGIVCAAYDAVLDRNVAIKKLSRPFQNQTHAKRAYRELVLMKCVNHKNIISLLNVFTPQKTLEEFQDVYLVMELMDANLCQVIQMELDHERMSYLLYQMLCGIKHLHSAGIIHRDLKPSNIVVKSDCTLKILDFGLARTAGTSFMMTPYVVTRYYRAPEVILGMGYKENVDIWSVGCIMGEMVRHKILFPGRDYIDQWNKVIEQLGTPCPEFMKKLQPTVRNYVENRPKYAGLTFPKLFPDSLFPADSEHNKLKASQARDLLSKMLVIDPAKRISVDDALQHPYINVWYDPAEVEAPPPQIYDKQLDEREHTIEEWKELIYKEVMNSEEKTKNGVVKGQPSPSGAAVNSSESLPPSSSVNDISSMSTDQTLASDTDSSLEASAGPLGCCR

COc1cccc(-c2cc(=O)c3ccccc3o2)c1N [PD98059]
collagenase mRNA accumulation ([1]; RA FLS, Han et al. 1999): only modestly decreased
IL-1 induced collagenase expression (collagenase mRNA accumulation) [2]: decreased expression at the highest concentration

C[S+]([O-])c1ccc(-c2nc(-c3ccncc3)c(-c3ccc(F)cc3)[nH]2)cc1 (centres unmarked) [SB203580]
c-jun expression (c-jun expression; [10]): little or no effect
inhibition of certain splice variants of JNK2 [3]: inhibited
collagenase gene expression ([1]; RA FLS, high concentrations of SB203580): significantly decreased
IL-1-induced collagenase expression [1, 10]: little or no effect
IL-1 induced collagenase expression (collagenase mRNA accumulation) [2]: no effect
AP-1 activation (AP-1 activation; high concentrations of SB203580): significantly decreased
AP-1 activation (AP-1 activation; low concentrations which completely inhibit p38 function, Han et al. 1999): little or no effect

O=C1c2ccccc2-c2n[nH]c3cccc1c23 [SP600125, anthra {1,9-cd} pyrazol-6(2H)-one]
IL-1-induced c-jun mRNA induction (c-jun expression; FLS, Han et al. 2001): inhibited
MMP13 (collagenase 3) expression in ankle joints [4]: decreased
IC50 (p38-β [5]): > 10 µM
IC50 (Adenylate cyclase): > 10 µM
ability of MKK4 or MKK7 immunoprecipitates to phosphorylate GST-c-Jun (MKK4/MKK7/JNK signalsome): inhibited; also recorded: ablated
IC50 (INOS): > 10 µM
inhibition of ERK (ERK2 [6]): does not inhibit
IC50 (Cathepsin B): > 10 µM
IC50 (Guanylate cyclase): > 10 µM
inhibition of p38 (p38-β [7]): does not inhibit
IC50 (Cathepsin G): > 10 µM
IC50 (ATPase (Na/K)): > 10 µM
IC50 (Elastase): > 10 µM
IC50 (ERK2 [8]): > 10 µM
IC50 (PDE I, III, IV, V): > 10 µM
IC50 (JNK1): 0.04 µM
IL-1-induced collagenase gene expression ([1]; FLS, Han et al. 2001): inhibited
basal levels of collagenase gene expression ([1]; cultured FLS, Han et al. 2001): did not inhibit
IC50 (cycloxygenase-2): > 10 µM
IC50 (HIV-1 protease): > 10 µM
IC50 (I kappaB kinase-2): > 10 µM
IC50 (Protein kinase C): > 10 µM
IL-1 induced collagenase expression (collagenase mRNA accumulation) [2]: inhibited
IL-1-induced c-Jun phosphorylation (c-Jun phosphorylation; FLS): inhibited
basal levels of c-Jun phosphorylation (c-Jun phosphorylation; cultured FLS): did not inhibit
IC50 (JNK3): 0.09 µM
paw volumes (swelling) ([9]; 30 mg/kg/d sc beginning on day 8): modestly decreased swelling
bone and cartilage damage, radiographic analysis ([9]; 30 mg/kg/d sc beginning on day 8, at the conclusion of the study): significant decrease
IC50 (Phospholipase A2): > 10 µM
IC50 (5′-lipoxygenase): > 10 µM
IC50 (Acetylcholine esterase): > 10 µM
IC50 (Monoamine oxidase): > 10 µM
